Measured values reported in patent publication US20090286802A1, “High Dose Folic Acid Compositions for Vascular Dysfunction” (priority 2005, published 2009).
Several values for one entry are separate records, joined by “and”; a condition that tells them apart may be missing. Equal entries are not always repeated.

What was measured:
[1] = system: patients with stable chronic ischemic heart disease; test: Myocardial blood flow by PET (13N-ammonia), sildenafil crossover study; assay type: in vivo, human; details: for Myocardial Blood Flow: abnormal zones, sildenafil 100 mg given ~2-3 hrs before, mean ± SD
Procedure: The effects of sildenafil on myocardial blood flow were assessed. The chemical name for sildenafil is 5-[2-ethoxy-5(-4-methyl piperazine-1-ylsulfonyl)phenyl]-1-methyl-3-propyl-1,6-dihydro-7H-pyrazolo[4,3-d]pyrimidin-7-one. A study design similar to that used to test the effects of folate as described herein was used. In brief, myocardial blood flow (MBF) was measured in 14 patients with stable chronic ischemic heart disease using positron emission tomography with ^13N-ammonia. Patients were studied in double blind, placebo control, cross-over design with 100 mg sildenafil (or placebo) given ˜2-3 hrs prior to measurements of hemodynamics and myocardial blood flow at rest and during administration of adenosine at (140 μg/kg/min). Sildenafil improved myocardial blood flow in abnormal zones (Table 4). Also shown are data of the effect of folate (30 mg) on myocardial blood flow.

[2] = oral administration; cited from earlier work
[3] = system: patients with ischemic heart disease; test: Myocardial blood flow (MBF) by PET (13N-ammonia) at rest and during adenosine, folate crossover study; assay type: in vivo, human; details: for effect on myocardial blood flow in NORMAL regions: folate vs. placebo
Procedure: (§1) 14 patients with ischemic heart disease, age 62±12yr. (mean±SD), were enrolled in a double-blind, placebo controlled crossover trial. Basal and adenosine-stimulated myocardial blood flow (MBF) were determined by PET and myocardial flow reserve was calculated. Each patient was studied after ingestion of placebo and after ingestion of 30 mg folic acid. Myocardial zones were prospectively defined physiologically as “NORMAL” vs “ABNORMAL” based on MBF response to Ado 140 (NORMAL=MBF>1.65 ml/min/g). ABNORMAL and NORMAL zones were analyzed separately in a patient based analysis.
(§2) Study Drug Administration. Subjects were enrolled in a double-blinded, placebo-controlled, crossover study during which folate syrup (30 mg) or similar tasting placebo syrup was administered orally in two divided doses, 10-12 hours and 1 hour prior to MBF measurements. […] Folate and placebo were administered at least one week apart, in random order, and in a double-blinded manner.
(§3) Myocardial Blood Flow Measurements. Vasoactive medications were withheld for 3-5 half-lives, and subjects were asked to avoid caffeinated beverages for 24 h before blood flow measurements. MBF was assessed with PET (GE Medical Systems Scanditronix PC4096), approximately 1-hr after ingestion of the second dose of the study drug. PET measurements of MBF (^13N-ammonia method) were performed at rest and during the infusion of two doses of adenosine (70 and 140 mcg/kg/min), using a previously described method (Huggins, G. S., et al., Circulation 1998; 98:1291-6).
PET Image Analysis: Three short axis rings corresponding to the proximal, middle and distal thirds of the left ventricle were constructed for each K1 scan and MBF was measured within 24 standard areas of interest as described previously (Huggins, G. S., et al., Circulation 1998; 98:1291-6). Data analysis was performed without knowledge of treatment order. To determine the variability of the MBF measurement, two readers independently assessed adenosine-stimulated MBF in 120 segments in 5 subjects and the difference between and within readers was calculated. The mean (±SD) intra-, and inter-observer difference was 0.03±0.10 and 0.03±0.17 ml/min/gm, respectively.
Prospective Definition of Myocardial Zones. MBF in regions supplied by stenotic conduit vessels, which were expected to have abnormal dilator capacity, were prospectively examined separately from regions with normal dilator capacity. […] Accordingly, myocardial zones were defined physiologically as “NORMAL” vs. “ABNORMAL” based on MBF response to Ado 140 during the placebo condition. Myocardial zones with MBF with Ado 140 of <1.65 ml/min/g during placebo condition were defined as ABNORMAL. The corresponding myocardial regions were identified during the folate condition, and were labeled ABNORMAL regardless of their MBF during the folate condition. Values for ABNORMAL MBF were combined and averaged to obtain a single value of ABNORMAL blood flow for each patient at each condition, (placebo and folic acid) for each scan acquisition (rest, adenosine 70, or adenosine 140). A patient-based analysis of MBF was performed.
Dilator reserve for both NORMAL and ABNORMAL zones was defined as the difference between peak MBF and rest MBF. Peak MBF was defined as the higher of the two average MBF values obtained during adenosine (i.e, the greater of the average MBF obtained during adenosine 70 vs. adenosine 140 dose). This was done, since in patients with IHD, coronary “steal” may occur (Holmvang, G., et al., Circulation 1999; 99:2510-6). and so cause underestimation of dilator reserve in ABNORMAL regions.

[4] = system: patients with ischemic heart disease; test: Hemodynamic variables (HR, RPP, blood pressure) at rest and during adenosine, double-blind placebo-controlled crossover study; assay type: in vivo, human; details: for HR / DBP (diastolic blood pressure) / MAP (mean arterial blood pressure) / RPP (rate pressure product, SAP × HR) / SAP (systolic blood pressure): folate 30 mg oral, mean ± SD
Procedure: as §1
Patient Population: Adult male and female patients with coronary artery disease and normal serum homocysteine concentration (HCY<12 μM) were recruited from the greater Boston area. Coronary artery disease was defined as the presence of a >50% stenosis in at least one coronary artery identified by coronary arteriography within the last 5 years. Exclusion criteria included: inability to maintain a stable medical regimen during the study period, concurrent use of folic acid, or myocardial infarction or coronary intervention within the proceeding 3 months. The study protocol was approved by the local Human Research Committee and informed consent was obtained from each subject.
as §2, §3
Statistical Analysis. Data are expressed as mean±SD. A repeated measures ANOVA was performed, (Statview v 4.0, Abacus Concepts), with terms for the order of folate vs. placebo administration, patient, and observations (blood pressure, MBF and G) for the three repeated measurements (adenosine 0, 70, and 140). To control for multiple testing, prospectively defined pair-wise t-tests comparing folate to placebo at each of the three adenosine doses were performed only if there was a significant main effect for folate or a significant interaction of folate with adenosine in the ANOVA analysis. Values of P<0.05 were considered significant.

[5] = Ado 70, folate 30 mg oral, mean ± SD
[6] = Ado 140, folate 30 mg oral, mean ± SD
[7] = Peak, folate 30 mg oral, mean ± SD
[8] = Rest, folate 30 mg oral, mean ± SD
[9] = folate 30 mg oral, mean ± SD, listed as folate

CCCc1nn(C)c2c(=O)[nH]c(-c3cc(S(=O)(=O)N4CCN(C)CC4)ccc3OCC)nc12 [Sildenafil, 5-[2-ethoxy-5(-4-methylpiperazine-1-ylsulfonyl)phenyl]-1-methyl-3-propyl-1,6-dihydro-7H-pyrazolo[4,3-d]pyrimidin-7-one]
Myocardial Blood Flow ([1]; Ado 140): 1.58 ± 0.55 ml/min/gm | Myocardial Blood Flow ([1]; Rest): 0.64 ± 0.20 ml/min/gm | effect on myocardial blood flow in abnormal zones ([1]; sildenafil 100 mg vs. placebo): improved

Nc1nc2ncc(CNc3ccc(C(=O)N[C@@H](CCC(=O)O)C(=O)O)cc3)nc2c(=O)[nH]1 [Folate, N[4-[[(2-amino-1,4-dihydro-4-oxo-6-pteridinyl)methyl]amino]benzoyl]-L-glutamic acid]
time to peak blood levels after administration [2]: 30 to 60 min | Myocardial Blood Flow, ABNORMAL zones [3, 5]: 1.60 ± 1.15 ml/min/gm | Myocardial Blood Flow, NORMAL zones [3, 5]: 2.01 ± 0.88 ml/min/gm | Ratio ABN:WNL (ABNORMAL/NORMAL zone MBF) [3, 5]: 0.84 ± 0.37 | Myocardial Blood Flow, ABNORMAL zones [3, 6]: 1.76 ± 0.75 ml/min/gm | Myocardial Blood Flow, NORMAL zones [3, 6]: 2.72 ± 0.74 ml/min/gm | Ratio ABN:WNL (ABNORMAL/NORMAL zone MBF) [3, 6]: 0.67 ± 0.21 | Myocardial Blood Flow, ABNORMAL zones ([3]; Peak (adenosine-stimulated), folate 30 mg oral, mean ± SD): 2.16±1.01 ml/min/gm | Myocardial Blood Flow, ABNORMAL zones ([3]; Peak (adenosine-stimulated), folate 30 mg oral, mean ± SD, listed as folic acid): 2.16±1.01 ml/min/gm | Myocardial Blood Flow, NORMAL zones [3, 7]: 2.86 ± 0.67 ml/min/gm | Ratio ABN:WNL (ABNORMAL/NORMAL zone MBF) [3, 7]: 0.75±0.24 | Myocardial Blood Flow, ABNORMAL zones [3, 8]: 0.74 ± 0.27 ml/min/gm | Myocardial Blood Flow, NORMAL zones [3, 8]: 0.81 ± 0.19 ml/min/gm | Ratio ABN:WNL (ABNORMAL/NORMAL zone MBF) [3, 8]: 0.95 ± 0.17 | patients in whom flow reserve increased in ABNORMAL zones relative to NORMAL zones ([3]; after folate): 83 % of patients | patients in whom peak MBF increased in ABNORMAL zones relative to NORMAL zones ([3]; after folate): 85 % of patients | Dilator Reserve (peak MBF minus rest MBF), ABNORMAL ([3]; folate 30 mg oral, mean ± SD): 1.41 ± 1.08 ml/min/gm | Dilator Reserve (peak MBF minus rest MBF), NORMAL ([3]; folate 30 mg oral, mean ± SD): 2.12±0.69 ml/min/gm | Dilator Reserve, Ratio ABN:WNL ([3]; folate 30 mg oral, mean ± SD): 0.63 ± 0.36 | Dilator Reserve (peak MBF minus rest MBF), ABNORMAL [3, 9]: 1.41±1.08 ml/min/gm | Dilator Reserve (peak MBF minus rest MBF), NORMAL [3, 9]: 2.12±0.69 ml/min/gm | increase in dilator reserve in ABNORMAL segments ([3]; folate 30 mg vs. placebo): 83% | increase in peak MBF in ABNORMAL zones ([3]; folate 30 mg vs. placebo): 49% | effect on myocardial blood flow in NORMAL regions [3]: did not affect | effect on myocardial blood flow in NORMAL regions ([3]; listed as folic acid): did not change | patients in whom ABNORMAL zone MBF improved after folate ([3]; of 13 patients with abnormal zones): 10 patients | HR ([4]; Ado 70 (adenosine 70 μg/kg/min)): 70 ± 14 bpm | DBP (diastolic blood pressure) ([4]; Ado 70): 68 ± 11 mmHg | MAP (mean arterial blood pressure) ([4]; Ado 70): 95 ± 13 mmHg | RPP (rate pressure product, SAP × HR) ([4]; Ado 70): 8604 ± 2484 mmHg × bpm | SAP (systolic blood pressure) ([4]; Ado 70): 123 ± 18 mmHg | HR ([4]; Ado 140 (adenosine 140 μg/kg/min)): 82 ± 15 bpm | DBP (diastolic blood pressure) ([4]; Ado 140): 69 ± 10 mmHg | MAP (mean arterial blood pressure) ([4]; Ado 140): 95 ± 15 mmHg | RPP (rate pressure product, SAP × HR) ([4]; Ado 140): 9998 ± 3066 mmHg × bpm | SAP (systolic blood pressure) ([4]; Ado 140): 120 ± 21 mmHg | DBP (diastolic blood pressure) ([4]; Rest): 70 ± 9 mmHg | HR ([4]; Rest): 61 ± 8 bpm | MAP (mean arterial blood pressure) ([4]; Rest): 96±11 mmHg and 96±2 mmHg | RPP (rate pressure product, SAP × HR) ([4]; Rest): 7483 ± 1798 mmHg × bpm | SAP (systolic blood pressure) ([4]; Rest): 121 ± 15 mmHg | reduction in diastolic blood pressure ([4]; folate 30 mg vs. placebo): 5 mm Hg | change in HR ([4]; folate vs. placebo): no significant change | change in RPP ([4]; folate vs. placebo): no significant change | effect on systolic, diastolic and mean arterial blood pressures ([4]; folate vs. placebo, P<0.01 ANOVA): significant reduction | patients with significant reduction in blood pressure after high-dose folate ([4]; without changes in homocysteine concentration): 11/14
